Assay results as given in patent US9102638B2, “Amidobenzothiazoles and process for the preparation thereof” (COUNCIL OF SCIENTIFIC & INDUSTRIAL RESEARCH, priority 2011, dated 2015).

Key:
Assay type in all cases: cell-based
HOP-92 = test: In vitro cytotoxicity, NCI screen: HOP-92 (Non-small cell lung); conditions: Homo sapiens; HOP-92, Non-small cell lung panel, NCI protocol; read-out: GI50 values (μM conc.)
Experimental: (§1) The in vitro anticancer activity studies for these amidobenzothiazoles were carried out at the National Cancer Institute, Maryland, USA.
(§2) The amidobenzothiazoles have been tested against sixty human tumor cell lines derived from nine cancer types (leukemia cancer cell line, non-small cell lung cancer cell line, colon cancer cell line, CNS cancer cell line, melanoma cancer cell line, ovarian cancer cell line, renal cancer cell line, prostate cancer cell line and breast cancer cell lines). For these compounds results are expressed in GI50 values of that particular cancer cell at micro molar (μM) concentration as per NCI protocol.

NCI-H322M = test: In vitro cytotoxicity, NCI screen: NCI-H322M (Non-small cell lung); conditions: Homo sapiens, Non-small cell lung panel, NCI protocol, read-out: GI50 values (μM conc.)
Experimental: as §1, §2

NCI-H522 = test: In vitro cytotoxicity, NCI screen: NCI-H522 (Non-small cell lung); conditions: Homo sapiens; NCI-H522, Non-small cell lung panel, NCI protocol; read-out: GI50 values (μM conc.)
Experimental: as §1, §2

COLO-205 = test: In vitro cytotoxicity, NCI screen: COLO-205 (Colon); conditions: Homo sapiens; COLO-205, Colon panel, NCI protocol; read-out: GI50 values (μM conc.)
Experimental: as §1, §2

HCT-116 = test: In vitro cytotoxicity, NCI screen: HCT-116 (Colon); conditions: Homo sapiens, read-out: GI50 values (μM conc.)
Experimental: as §1, §2

SNB-19 = test: In vitro cytotoxicity, NCI screen: SNB-19 (CNS); conditions: Homo sapiens; SNB-19, CNS panel, NCI protocol; read-out: GI50 values (μM conc.)
Experimental: as §1, §2

SNB-75 = test: In vitro cytotoxicity, NCI screen: SNB-75 (CNS); conditions: Homo sapiens; SNB-75, CNS panel, NCI protocol; read-out: GI50 values (μM conc.)
Experimental: as §1, §2

LOX IMVI = test: In vitro cytotoxicity, NCI screen: LOX IMVI (Melanoma); conditions: Homo sapiens, Melanoma panel, NCI protocol, read-out: GI50 values (μM conc.)
Experimental: as §1, §2

MDA-MB-435 = test: In vitro cytotoxicity, NCI screen: MDA-MB-435 (Melanoma); conditions: Homo sapiens; MDA-MB-435, Melanoma panel, NCI protocol; read-out: GI50 values (μM conc.)
Experimental: as §1, §2

SK-MEL-28 = test: In vitro cytotoxicity, NCI screen: SK-MEL-28 (Melanoma); conditions: Homo sapiens; SK-MEL-28, Melanoma panel, NCI protocol; read-out: GI50 values (μM conc.)
Experimental: as §1, §2

OVCAR-3 = test: In vitro cytotoxicity, NCI screen: OVCAR-3 (Ovarian); conditions: Homo sapiens; OVCAR-3, Ovarian panel, NCI protocol; read-out: GI50 values (μM conc.)
Experimental: as §1, §2

OVCAR-4 = test: In vitro cytotoxicity, NCI screen: OVCAR-4 (Ovarian); conditions: Homo sapiens; OVCAR-4, Ovarian panel, NCI protocol; read-out: GI50 values (μM conc.)
Experimental: as §1, §2

ACHN = test: In vitro cytotoxicity, NCI screen: ACHN (Renal); conditions: Homo sapiens, Renal panel, NCI protocol, read-out: GI50 values (μM conc.)
Experimental: as §1, §2

CAKI-1 = test: In vitro cytotoxicity, NCI screen: CAKI-1 (Renal); conditions: Homo sapiens; CAKI-1, Renal panel, NCI protocol; read-out: GI50 values (μM conc.)
Experimental: as §1, §2

RXF 393 = test: In vitro cytotoxicity, NCI screen: RXF 393 (Renal); conditions: Homo sapiens; RXF 393, Renal panel, NCI protocol; read-out: GI50 values (μM conc.)
Experimental: as §1, §2

SN12C = test: In vitro cytotoxicity, NCI screen: SN12C (Renal); conditions: Homo sapiens, Renal panel, NCI protocol, read-out: GI50 values (μM conc.)
Experimental: as §1, §2

TK-10 = test: In vitro cytotoxicity, NCI screen: TK-10 (Renal); conditions: Homo sapiens; TK-10, Renal panel, NCI protocol; read-out: GI50 values (μM conc.)
Experimental: as §1, §2

UO-31 = test: In vitro cytotoxicity, NCI screen: UO-31 (Renal); conditions: Homo sapiens; UO-31, Renal panel, NCI protocol; read-out: GI50 values (μM conc.)
Experimental: as §1, §2

PC-3 = test: In vitro cytotoxicity, NCI screen: PC-3 (Prostate); conditions: Homo sapiens; PC-3, Prostate panel, NCI protocol; read-out: GI50 values (μM conc.)
Experimental: as §1, §2

DU-145 = test: In vitro cytotoxicity, NCI screen: DU-145 (Prostate); conditions: Homo sapiens, read-out: GI50 values (μM conc.)
Experimental: as §1, §2

MCF7 = test: In vitro cytotoxicity, NCI screen: MCF7 (Breast); conditions: Homo sapiens; MCF7, Breast panel, NCI protocol; read-out: GI50 values (μM conc.)
Experimental: as §1, §2

HS 578T = test: In vitro cytotoxicity, NCI screen: HS 578T (Breast); conditions: Homo sapiens, read-out: GI50 values (μM conc.)
Experimental: as §1, §2

BT-549 = test: In vitro cytotoxicity, NCI screen: BT-549 (Breast); conditions: Homo sapiens, read-out: GI50 values (μM conc.)
Experimental: as §1, §2

MDA-MB-468 = test: In vitro cytotoxicity, NCI screen: MDA-MB-468 (Breast); conditions: Homo sapiens, read-out: GI50 values (μM conc.)
Experimental: as §1, §2

[1] = system: leukemia cancer cell lines; test: In vitro activity against leukemia cancer cell lines (panel range); conditions: Homo sapiens, read-out: GI50 values, range over the listed compounds and the panel
Experimental: as §1, §2

MOLT-4 = test: In vitro cytotoxicity, NCI screen: MOLT-4 (Leukemia); conditions: Homo sapiens; MOLT-4, Leukemia panel, NCI protocol; read-out: GI50 values (μM conc.)
Experimental: as §1, §2

SR = test: In vitro cytotoxicity, NCI screen: SR (Leukemia); conditions: Homo sapiens, Leukemia panel, NCI protocol, read-out: GI50 values (μM conc.)
Experimental: as §1, §2

HT29 = test: In vitro cytotoxicity, NCI screen: HT29 (Colon); conditions: Homo sapiens, HT-29; HT29, Colon panel, NCI protocol; read-out: GI50 values (μM conc.)
Experimental: as §1, §2

SK-MEL-5 = test: In vitro cytotoxicity, NCI screen: SK-MEL-5 (Melanoma); conditions: Homo sapiens; SK-MEL-5, Melanoma panel, NCI protocol; read-out: GI50 values (μM conc.)
Experimental: as §1, §2

UACC-62 = test: In vitro cytotoxicity, NCI screen: UACC-62 (Melanoma); conditions: Homo sapiens; UACC-62, Melanoma panel, NCI protocol; read-out: GI50 values (μM conc.)
Experimental: as §1, §2

GI50 [1] [µM]	SMILES	GI50 (HOP-92) [µM]	GI50 (NCI-H522) [µM]	GI50 (COLO-205) [µM]	GI50 (HCT-116) [µM]	GI50 (SNB-75) [µM]	GI50 (LOX IMVI) [µM]	GI50 (MDA-MB-435) [µM]	GI50 (OVCAR-3) [µM]	GI50 (OVCAR-4) [µM]	GI50 (ACHN) [µM]	GI50 (CAKI-1) [µM]	GI50 (RXF 393) [µM]	GI50 (SN12C) [µM]	GI50 (UO-31) [µM]	GI50 (PC-3) [µM]	GI50 (DU-145) [µM]	GI50 (MCF7) [µM]	GI50 (BT-549) [µM]	GI50 (MDA-MB-468) [µM]	other results
0.037 to 29.9	COc1ccc(C2CC(c3cc(OC)c(OC)c(OC)c3)=NN2C(C)=O)cc1OCC(=O)Nc1nc2ccc(C(F)(F)F)cc2s1 (centres unmarked) [Compound 10i, N1-(6-(trifluoromethyl)-1,3-benzothiazol-2-yl)-2-{5-[1-acetyl-3-(3,4,5-trimethoxyphenyl)-4,5-dihydro-1H-5-pyrazolyl]-2-methoxyphenoxy}acetamide]	1.7	2.71	3.94	2.39	1.55	3.36	3.08	1.84	2.9	2.48	2.17	2.09	3.31	1.93	2.92	1.82	4.02	3.55	6.12	GI50 (NCI-H322M): 3.67 µM; GI50 (SNB-19): 11 µM; GI50 (SK-MEL-28): 3.56 µM; GI50 (TK-10): 2.85 µM; GI50 (HS 578T): 2.48 µM
0.037 to 29.9	COc1ccc(/C=C\c2cc(OC)c(OC)c(OC)c2)cc1OCC(=O)Nc1nc2ccccc2s1 [Compound 8a, N1-(1,3-benzothiazol-2-yl)-2-{2-methoxy-5-[(Z)-2-(3,4,5-trimethoxyphenyl)-1-ethenyl]phenoxy}acetamide]	0.039	0.079	2.83	0.046	0.046	0.067	0.019	0.043	0.37	0.093	0.41	0.05	0.37	0.58	0.18	0.1	0.051	0.41	0.1	GI50 (MOLT-4): 0.34 µM; GI50 (SR): 0.037 µM; GI50 (HT29): 3.16 µM; GI50 (SK-MEL-5): 0.036 µM; GI50 (UACC-62): 0.063 µM
0.037 to 29.9	COc1ccc(/C=C/C(=O)c2cc(OC)c(OC)c(OC)c2)cc1OCC(=O)Nc1nc2ccc(OC(F)(F)F)cc2s1 [Compound 9j, N1-(6-(trifluoromethoxy)-1,3-benzothiazol-2-yl)-2-{2-methoxy-5-[(E)-3-oxo-3-(3,4,5-trimethoxyphenyl)-1-propenyl]phenoxy}acetamide]	2.14	0.67	6.37	1.43	0.34	0.47	0.3	1.52	2.07	1.62	2.2	1.58	1.74	1.61	3.14	1.56	1.32	2.71	3.52	GI50 (MOLT-4): 2.89 µM; GI50 (SR): 0.39 µM; GI50 (NCI-H322M): 2.77 µM; GI50 (HT29): 3.66 µM; GI50 (SNB-19): 1.58 µM; GI50 (SK-MEL-28): 3.31 µM; GI50 (SK-MEL-5): 2.03 µM; GI50 (UACC-62): 9.52 µM; GI50 (TK-10): 2.08 µM; GI50 (HS 578T): 3.08 µM

SMILES	GI50 [1] [µM]	GI50 (HOP-92) [µM]	GI50 (NCI-H522) [µM]	GI50 (COLO-205) [µM]	GI50 (HCT-116) [µM]	GI50 (SNB-75) [µM]	GI50 (LOX IMVI) [µM]	GI50 (MDA-MB-435) [µM]	GI50 (OVCAR-3) [µM]	GI50 (OVCAR-4) [µM]	GI50 (ACHN) [µM]	GI50 (CAKI-1) [µM]	GI50 (RXF 393) [µM]	GI50 (SN12C) [µM]	GI50 (UO-31) [µM]	GI50 (PC-3) [µM]	GI50 (DU-145) [µM]	GI50 (MCF7) [µM]	GI50 (BT-549) [µM]	GI50 (MDA-MB-468) [µM]	other results
COc1ccc(/C=C\c2cc(OC)c(OC)c(OC)c2)cc1OCC(=O)Nc1nc2ccc(C(F)(F)F)cc2s1 [Compound 8i, N1-(6-(trifluoromethyl)-1,3-benzothiazol-2-yl)-2-{2-methoxy-5-[(Z)-2-(3,4,5-trimethoxyphenyl)-1-ethenyl]phenoxy}acetamide]	0.037 to 29.9	2.88	2.89	17.1	3.29	1.58	4.01	1.84	2.11	4.66	4.82	3.1	2.27	4.43	3.59	4.32	2.51	3.16	5.23	2.16	GI50 (MOLT-4): 3.75 µM; GI50 (SR): 3.35 µM; GI50 (NCI-H322M): 5.38 µM; GI50 (HT29): 14.9 µM; GI50 (SNB-19): 5.03 µM; GI50 (SK-MEL-28): 3 µM; GI50 (SK-MEL-5): 2.84 µM; GI50 (UACC-62): 3.9 µM; GI50 (TK-10): 7.03 µM; GI50 (HS 578T): 4.18 µM
